US20110195845A1, “Constructs for Expressing Herbicide Tolerance Genes, Related Plants, and Related Trait Combinations” (Dow AgroSciences LLC, priority 2008, published 2011)

Legend:
[1] = tested on: Escherichia coli BL21-Star (DE3) with AtUbi10 promoter//PAT (3779); assay: Plant promoter driven complementation on glufosinate, plasmid 3779; assay type: cell-based; design: key: ++++ = Heavy Lawn Growth; +++ = Lawn Growth; ++ = Lots of Distinct Colonies; + = Scattered Colony Growth; settings: 48 hrs @37 C
Description: (§1) Plasmid constructs in which the DSM-2 (v2) and PAT gene coding sequences were expressed, under either the viral promoters CsVMV or the plant promoter AtUbi10, were assayed for complementation on minimal media containing glufosinate. The plasmids 3778 (Rb7 MARv3//AtUbi10 promoter//DSM-2 (v2)//Atu Orf 1 3′UTR), 3779 (Rb7 MARv3//AtUbi10 promoter//PAT//Atu Orf 1 3′UTR), 3264 (CsVMV promoter//DSM-2//Atu Orf 24 3′UTR), 3037 (CsVMV promoter//PAT//Atu Orf 25/26 3′UTR), and 770 (control plasmid containing CsVMV promoter//GUS v3//Atu Orf 24 3′UTR) were transformed into Escherichia coli BL21-Star (DE3) and grown up in complex media. Five microliters of the cultures were plated on minimal media containing increasing concentrations of Glufosinate and incubated at 37° C. for 48 hours.

[2] = tested on: E. coli Top10; assay: Bacterial strain response to glufosinate on minimal media; assay type: cell-based, Escherichia coli; design: key: +++ = Heavy Lawn Growth; ++ = Light lawn growth; + = patchy lawn growth; −− = No Growth; settings: 24 hrs @ 37 C
Description: (§2) Selected cell lines of Escherichia coli and Agrobacterium tumefaciens were inoculated on minimal media containing incrementally increasing concentrations of Glufosinate (BASTA). The cell lines; BL21-Star (DE3), Top10, DH5α, Agrobacterium tumefaciens C58, and Agrobacterium tumefaciens LBA4404s were initially grown up on complex media. The Escherichia coli strains were grown in LB and the Agrobacterium tumefaciens strains were grown in YEP. Five microliters of bacterial culture was inoculated and dispersed evenly onto minimal media plates containing various concentrations of glufosinate. The concentrations consisted of 0 μg/ml, 250 μg/ml, 500 μg/ml, 1000 μg/ml, 2000 μg/ml, and 4000 μg/ml of BASTA. In addition, the bacterial strains were inoculated onto a plate of complex media as a control—Agrobacterium tumefaciens strains were inoculated on YEP agar plates, and Escherichia coli strains were inoculated on LB agar plates. The plates containing the Escherichia coli strains were incubated at 37° C. for 24 hours. The plates containing the Agrobacterium tumefaciens strains were incubate at 25° C. for 48 hours. […] Table 7 illustrates the capability of the various strains to grow on minimal media containing glufosinate.

[3] = tested on: E. coli DH5α; assay: as above; assay type: cell-based, Escherichia coli; design: key: +++ = Heavy Lawn Growth; ++ = Light lawn growth; + = patchy lawn growth; −− = No Growth; settings: 24 hrs @ 37 C
Description: as §2

[4] = tested on: T0 DSM-2 (v2)-transformed corn plants; assay: Leaf paint with glufosinate in T0 corn; assay type: in vivo; settings: for % Injury: 2 WAT
Description: (§3) T0 DSM-2 (v2) plants were painted with a rundown of glufosinate herbicide. Four siblings from each of 15 T0 events were tested, and 4 leaves on each individual plant received a rundown of glufosinate at approximately V8 stage. Rundown treatments were randomized for each rate allowing for variation of treatment location on individual leaves. For corn, 0.25% v/v glufosinate is the minimum effective dose to distinguish sensitive plants from ones with meaningful levels of resistance. Elevated rates were also applied to determine relative levels of resistance (0.5%, 1.0%, and 2.0% v/v). Glufosinate treatments were applied using cotton tipped applicators to a treatment area of approximately 2.5 cm in diameter.
(§4) Table 11 compares the response of DSM-2 (v2) and control genes to impart glufosinate resistance to corn T0 transformants. Response is presented in terms of % visual injury 2 WAT. […] Since each T0 is an independent transformation event, one can expect significant variation of individual T0 responses within a given rate. An arithmetic mean and standard deviation is presented for each treatment. Untransformed wildtype corn served as a glufosinate sensitive control. The DSM-2 (v2) gene imparted herbicide resistance to individual T0 corn plants. Within a given treatment, the level of plant response varied greatly and can be attributed to the fact each plant represents an independent transformation event.

[5] = tested on: T0 PAT-transformed corn plants; assay: Leaf paint with glufosinate in T0 corn; assay type: in vivo; settings: 2 WAT
Description: as §3, §4

[6] = tested on: E. coli BL21-Star (DE3); assay: Bacterial strain response to glufosinate on minimal media; assay type: cell-based, Escherichia coli; design: key to bacterial growth on minimal media: +++ = Heavy Lawn Growth; ++ = Light lawn growth; + = patchy lawn growth; −− = No Growth; settings: for bacterial growth on minimal media: 24 hrs @ 37 C
Description: as §2

[7] = tested on: Escherichia coli BL21-Star (DE3) with AtUbi10 promoter//DSM-2 (v2) (3778); assay: Plant promoter driven complementation on glufosinate, plasmid 3778; assay type: cell-based; design: bacterial growth on minimal media: key: ++++ = Heavy Lawn Growth; +++ = Lawn Growth; ++ = Lots of Distinct Colonies; + = Scattered Colony Growth; settings: for bacterial growth on minimal media: 48 hrs @37 C
Description: as §1

[8] = 0.25% v/v glufosinate leaf paint
[9] = 0.5% v/v glufosinate leaf paint

In the case of `CP(=O)(O)CCC(N)C(=O)O` (stereo not shown) [glufosinate], the “bacterial growth on minimal media” value ([1]; 250 μg/ml BASTA) is reported as “++++”, the “bacterial growth on minimal media” value ([1]; 500 μg/ml BASTA) is reported as “+++” and the “bacterial growth on minimal media” value ([1]; 1000 μg/ml BASTA) is reported as “+++”. The “bacterial growth on minimal media” value ([1]; 2000 μg/ml BASTA) was “+++”, the “bacterial growth on minimal media” value ([1]; 4000 μg/ml BASTA) was “+++” and the “bacterial growth on minimal media” value ([2]; 250 μg/ml BASTA) was “+++”. The “bacterial growth on minimal media” value ([2]; 500 μg/ml BASTA) was “+++”, the “bacterial growth on minimal media” value ([2]; 1000 μg/ml BASTA) was “+++” and the “bacterial growth on minimal media” value ([2]; 2000 μg/ml BASTA) was “+”. For the same compound, the “bacterial growth on minimal media” value ([2]; 4000 μg/ml BASTA) was “−−”, the “bacterial growth on minimal media” value ([3]; 250 μg/ml BASTA) was “+++” and the “bacterial growth on minimal media” value ([3]; 500 μg/ml BASTA) was “+++”. For the same compound, the “bacterial growth on minimal media” value ([3]; 1000 μg/ml BASTA) was “+++”, the “bacterial growth on minimal media” value ([3]; 2000 μg/ml BASTA) was “+++” and the “bacterial growth on minimal media” value ([3]; 4000 μg/ml BASTA) was “−−”. For the same compound, the “% Injury” value [4, 8] was 0%, the “% Injury” value [4, 9] was 1% and the “% Injury” value ([4]; 1% v/v glufosinate leaf paint) was 2%. The “% Injury” value ([4]; 2% v/v glufosinate leaf paint) was 4%, the “performance compared to PAT-transformed plants” value ([4]; up to 2% v/v glufosinate) was “performs better overall than PAT-transformed plants” and the “% Injury” value [5, 8] was 1%. For the same compound, the “% Injury” value [5, 9] was 3%, the “% Injury” value ([5]; 1% v/v glufosinate leaf paint) was 6% and the “% Injury” value ([5]; 2% v/v glufosinate leaf paint) was 9%. The “bacterial growth on minimal media” value ([6]; 250 μg/ml BASTA) was “−−”, the “bacterial growth on minimal media” value ([6]; 500 μg/ml BASTA) was “−−” and the “bacterial growth on minimal media” value ([6]; 1000 μg/ml BASTA) was “−−”. The “bacterial growth on minimal media” value ([6]; 2000 μg/ml BASTA) was “−−”, the “bacterial growth on minimal media” value ([6]; 4000 μg/ml BASTA) was “−−” and the “concentration in minimal media at which the cell line was inhibited” value ([6]; minimal media) was 100 µg/mL. The “inhibition of strain by glufosinate” value ([6]; minimal media, 250-4000 μg/ml BASTA) was “substantially inhibited”, the “bacterial growth on minimal media” value ([7]; 250 μg/ml BASTA) was “++++” and the “bacterial growth on minimal media” value ([7]; 500 μg/ml BASTA) was “+++”. The “bacterial growth on minimal media” value ([7]; 1000 μg/ml BASTA) was “+++”, the “bacterial growth on minimal media” value ([7]; 2000 μg/ml BASTA) was “++” and the “bacterial growth on minimal media” value ([7]; 4000 μg/ml BASTA) was “++”. The “concentration in minimal media to which promoter-driven DSM-2 provided resistance” value ([7]; At Ubi10 promoter, minimal media) was 200 µg/mL.
